{"source": "patent US7453555B2", "about": "“Aggregometer with near ultraviolet light source” (Bio/Data Corporation, priority 2005, dated 2008)", "type_in_all_cases": "cell-based", "key": {"[1]": {"tested_on": "platelets (platelet rich plasma)", "assay": "PAP-8E normal aggregation test, channel to channel data", "parameters": "Average % Agg.: dose or concentration left out as unconfirmed", "details": "for Average Slope: PAP-8E 340 nM LED; for Average % Agg.: PAP-8E 340 nm LED", "procedure": "This test method preferably uses a normal platelet rich plasma (PRP) that has 200,000 platelets per cubic mm, with 1 μL volume. At about 6 μm long (oval), the platelets are quite small.\nThe normal test volume for the PAP-8E using the UV LED's is 500 μL. Using this volume, and the 200,000 platelets per cubic mm, we can assume there are (500×200,000=) 100,000,000 platelets.\nDuring testing the beam of radiation passes through about 25% of the PRP. The task then, is to measure how many and how fast this smaller percentage of the PRP reacts and aggregates. This is done by the measurement of the change in transmission between a platelet poor (PPP) blank and the platelet rich sample.\nThe channel to channel variation in the PAP-8 E is now less than 11% CV for slope reproducibility and less than 8% CV for % aggregation reproducibility."}, "[2]": {"tested_on": "platelets", "assay": "Ristocetin dilution test (factor assay), PAP-8E aggregometer with short-wavelength LED", "details": "for 100% Avg. / 100% Slope: 100% level", "procedure": "(§1) Factor assay test methods benefit from the higher sensitivity of aggregometers utilizing short-wavelength LEDs. In these methods, reference curves are developed with a standard plasma (90-120% activity of the factor) that is serially diluted (down) to an activity of 1.56% (1:64 dilution). Tests are based on the rate of change in optical density.\n(§2) This is a quality control test in which ristocetin/plasma are tested to select the best dilution for a lot of ristocetin reagent. The attenuation of samples was measured at 8.5 mg/ml to 11.0 mg/ml concentrations to determine a slope of each sample (see Table 1, 100% slope, 100% Avg.). The slope is known by those skilled in the art as an indicator of the rate of reaction of the ristocetin reagent. Each of the 8.5 mg/ml to 11.0 mg/ml concentration ristocetin/plasma concentrations were also respectively tested diluted to 50% (see Table 1, 50% slope, 50% Avg.). The results of Table 1 are plotted in FIGS. 4a and 4b. FIG. 4a plots the slopes for each concentration at both 100% and 50% levels. FIG. 4b plots the difference in slopes between the 100% and 50% dilution levels for each concentration. […] Such irregularity makes reliable testing and analysis decision making difficult. […]\nThe most common use of aggregation in the United States is a test method called the Ristocetin Cofactor Assay. This assay uses standard lyophilized platelets and a plasma that contains a factor. This method uses a standard curve where the standard plasma is diluted to concentrations of 100% to 25%."}, "[3]": {"tested_on": "platelets", "assay": "Ristocetin dilution test (factor assay), PAP-4 aggregometer with 626 nm LED", "details": "PAP-4 626 nm LED; for 100% Avg. / 100% Slope: 100% level", "from_the_text": "as §1\nTable 1 below and FIGS. 4a and 4b provide test results of a factor assay test: a ristocetin dilution test using an aggregometer with a 626 nm (long-wavelength) LED.\nas §2"}, "[4]": {"details": "Ristocetin 8.5 mg/ml diluted to 50%"}, "[5]": {"details": "Ristocetin 9.0 mg/ml diluted to 50%"}, "[6]": {"details": "Ristocetin 9.5 mg/ml diluted to 50%"}, "[7]": {"details": "Ristocetin 10.0 mg/ml diluted to 50%"}, "[8]": {"details": "Ristocetin 10.5 mg/ml diluted to 50%"}, "[9]": {"details": "Ristocetin 11.0 mg/ml diluted to 50%"}}, "note": "“And” between values parts separate entries of the source, which are not always exact repeats. Equal values may be shown once."}
{"compound": "Collagen", "values": [{"measurement": "Average Slope", "setting": "[1]", "result": 44.0}, {"measurement": "Average % Agg.", "setting": "[1]", "result": 74.9, "unit": "%"}]}
{"compound": "CNC[C@H](O)c1ccc(O)c(O)c1", "note": "[Epinephrine]", "values": [{"measurement": "Average Slope", "setting": "[1]", "result": 30.5}, {"measurement": "Average % Agg.", "setting": "[1]", "result": 73.1, "unit": "%"}]}
{"compound": "CCCCC/C=C\\C/C=C\\C/C=C\\C/C=C\\CCCC(=O)O", "note": "[Arachidonic Acid]", "values": [{"measurement": "Average Slope", "setting": "[1]", "result": 38.9}, {"measurement": "Average % Agg.", "setting": "[1]", "result": 73.5, "unit": "%"}]}
{"compound": "ristocetin", "values": [{"measurement": "Difference 100 − 50", "setting": "[2]; Ristocetin 8.5 mg/ml", "result": 2.5}, {"measurement": "50% Avg.", "setting": "[2]; [4]", "result": 23.0}, {"measurement": "50% Slope", "setting": "[2]; [4]", "result": "22.0 and 24.0"}, {"measurement": "100% Avg.", "setting": "[2]; Ristocetin 8.5 mg/ml", "result": 25.5}, {"measurement": "100% Slope", "setting": "[2]; Ristocetin 8.5 mg/ml", "result": "23.0 and 28.0"}, {"measurement": "Difference 100 − 50", "setting": "[2]; Ristocetin 9.0 mg/ml", "result": 5.0}, {"measurement": "50% Avg.", "setting": "[2]; [5]", "result": 26.5}, {"measurement": "50% Slope", "setting": "[2]; [5]", "result": "28.0 and 25.0"}, {"measurement": "100% Avg.", "setting": "[2]; Ristocetin 9.0 mg/ml", "result": 31.5}, {"measurement": "100% Slope", "setting": "[2]; Ristocetin 9.0 mg/ml", "result": "32.0 and 31.0"}, {"measurement": "Difference 100 − 50", "setting": "[2]; Ristocetin 9.5 mg/ml", "result": 8.0}, {"measurement": "50% Avg.", "setting": "[2]; [6]", "result": 23.5}, {"measurement": "50% Slope", "setting": "[2]; [6]", "result": "24.0 and 23.0"}, {"measurement": "100% Avg.", "setting": "[2]; Ristocetin 9.5 mg/ml", "result": 31.5}, {"measurement": "100% Slope", "setting": "[2]; Ristocetin 9.5 mg/ml", "result": "31.0 and 32.0"}, {"measurement": "Difference 100 − 50", "setting": "[2]; Ristocetin 10.0 mg/ml", "result": 9.0}, {"measurement": "50% Avg.", "setting": "[2]; [7]", "result": 21.5}, {"measurement": "50% Slope", "setting": "[2]; [7]", "result": "22.0 and 21.0"}, {"measurement": "100% Avg.", "setting": "[2]; Ristocetin 10.0 mg/ml", "result": 30.5}, {"measurement": "100% Slope", "setting": "[2]; Ristocetin 10.0 mg/ml", "result": "31.0 and 30.0"}, {"measurement": "Difference 100 − 50", "setting": "[2]; Ristocetin 10.5 mg/ml", "result": 8.0}, {"measurement": "50% Avg.", "setting": "[2]; [8]", "result": 23.5}, {"measurement": "50% Slope", "setting": "[2]; [8]", "result": "21.0 and 26.0"}, {"measurement": "100% Avg.", "setting": "[2]; Ristocetin 10.5 mg/ml", "result": 31.5}, {"measurement": "100% Slope", "setting": "[2]; Ristocetin 10.5 mg/ml", "result": "30.0 and 33.0"}, {"measurement": "Difference 100 − 50", "setting": "[2]; Ristocetin 11.0 mg/ml", "result": 4.0}, {"measurement": "50% Avg.", "setting": "[2]; [9]", "result": 27.5}, {"measurement": "50% Slope", "setting": "[2]; [9]", "result": "29.0 and 26.0"}, {"measurement": "100% Avg.", "setting": "[2]; Ristocetin 11.0 mg/ml", "result": 31.5}, {"measurement": "100% Slope", "setting": "[2]; Ristocetin 11.0 mg/ml", "result": "30.0 and 33.0"}, {"measurement": "50% Avg.", "setting": "[3]; [4]", "result": 29.5}, {"measurement": "50% Slope", "setting": "[3]; [4]", "result": "29.0 and 30.0"}, {"measurement": "100% Avg.", "setting": "[3]; Ristocetin 8.5 mg/ml", "result": 42.0}, {"measurement": "100% Slope", "setting": "[3]; Ristocetin 8.5 mg/ml", "result": 42.0}, {"measurement": "Difference 100 − 50", "setting": "[3]; Ristocetin 8.5 mg/ml", "result": 12.5}, {"measurement": "50% Avg.", "setting": "[3]; [5]", "result": 33.5}, {"measurement": "50% Slope", "setting": "[3]; [5]", "result": "32.0 and 35.0"}, {"measurement": "100% Avg.", "setting": "[3]; Ristocetin 9.0 mg/ml", "result": 46.5}, {"measurement": "100% Slope", "setting": "[3]; Ristocetin 9.0 mg/ml", "result": "47.0 and 46.0"}, {"measurement": "Difference 100 − 50", "setting": "[3]; Ristocetin 9.0 mg/ml", "result": 13.0}, {"measurement": "50% Avg.", "setting": "[3]; [6]", "result": 32.0}, {"measurement": "50% Slope", "setting": "[3]; [6]", "result": "33.0 and 31.0"}, {"measurement": "100% Avg.", "setting": "[3]; Ristocetin 9.5 mg/ml", "result": 40.5}, {"measurement": "100% Slope", "setting": "[3]; Ristocetin 9.5 mg/ml", "result": "41.0 and 40.0"}, {"measurement": "Difference 100 − 50", "setting": "[3]; Ristocetin 9.5 mg/ml", "result": 8.5}, {"measurement": "50% Avg.", "setting": "[3]; [7]", "result": 33.5}, {"measurement": "50% Slope", "setting": "[3]; [7]", "result": "33.0 and 34.0"}, {"measurement": "100% Avg.", "setting": "[3]; Ristocetin 10.0 mg/ml", "result": 43.5}, {"measurement": "100% Slope", "setting": "[3]; Ristocetin 10.0 mg/ml", "result": "41.0 and 46.0"}, {"measurement": "Difference 100 − 50", "setting": "[3]; Ristocetin 10.0 mg/ml", "result": 10.0}, {"measurement": "50% Avg.", "setting": "[3]; [8]", "result": 33.0}, {"measurement": "50% Slope", "setting": "[3]; [8]", "result": "31.0 and 35.0"}, {"measurement": "100% Avg.", "setting": "[3]; Ristocetin 10.5 mg/ml", "result": 39.5}, {"measurement": "100% Slope", "setting": "[3]; Ristocetin 10.5 mg/ml", "result": "39.0 and 40.0"}, {"measurement": "Difference 100 − 50", "setting": "[3]; Ristocetin 10.5 mg/ml", "result": 6.5}, {"measurement": "50% Avg.", "setting": "[3]; [9]", "result": 28.5}, {"measurement": "50% Slope", "setting": "[3]; [9]", "result": "28.0 and 29.0"}, {"measurement": "100% Avg.", "setting": "[3]; Ristocetin 11.0 mg/ml", "result": 36.5}, {"measurement": "100% Slope", "setting": "[3]; Ristocetin 11.0 mg/ml", "result": "41.0 and 32.0"}, {"measurement": "Difference 100 − 50", "setting": "[3]; Ristocetin 11.0 mg/ml", "result": 8.0}]}
{"compound": "Nc1ncnc2c1ncn2[C@@H]1O[C@H](COP(=O)(O)OP(=O)(O)O)[C@@H](O)[C@H]1O", "note": "[ADP]", "values": [{"measurement": "Average Slope", "setting": "[1]", "result": 41.3}, {"measurement": "Average % Agg.", "setting": "[1]", "result": 72.6, "unit": "%"}]}
